Data from PubChem BioAssay AID675 (The Scripps Research Institute Molecular Screening Center, 2007).
Active and inactive are the calls of the source.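 How the source made its calls: active means EC50 at or below a set limit for turning on the RORA orphan receptor reporter; inactive means the rest.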

Biological target: Nuclear receptor ROR-alpha (Homo sapiens) (UniProt P35398)
Experiment: RORA Gal4 reporter activation in CHO-K1 cells, dose response, counter-screen for SF-1 activator project, cell-based, Gal4-RORA LBD, luciferase luminescence (AID 675)

Sequence of Nuclear receptor ROR-alpha (Homo sapiens) (P35398 whole entry, looked up, the tested form may be a part): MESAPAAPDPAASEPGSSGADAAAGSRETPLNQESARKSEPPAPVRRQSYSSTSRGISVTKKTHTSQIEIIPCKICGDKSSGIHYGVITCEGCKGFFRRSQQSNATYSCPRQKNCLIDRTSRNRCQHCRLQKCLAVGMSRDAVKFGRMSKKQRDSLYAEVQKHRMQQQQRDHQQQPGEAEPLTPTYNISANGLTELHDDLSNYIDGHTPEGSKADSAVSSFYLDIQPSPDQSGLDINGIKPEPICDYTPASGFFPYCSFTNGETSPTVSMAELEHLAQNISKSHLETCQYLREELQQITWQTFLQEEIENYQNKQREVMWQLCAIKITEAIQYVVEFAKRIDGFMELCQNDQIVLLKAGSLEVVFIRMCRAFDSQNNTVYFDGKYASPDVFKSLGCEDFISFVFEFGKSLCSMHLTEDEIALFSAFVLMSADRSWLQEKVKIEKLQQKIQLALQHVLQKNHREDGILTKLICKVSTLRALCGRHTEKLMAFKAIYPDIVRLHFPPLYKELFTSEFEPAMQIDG

EC50 | SMILES
> 33 µM (inactive) | COc1cc(C2C3C(=O)N(c4ccccc4)C(=O)C3ON2c2ccccc2)ccc1O (stereo not drawn)
1.61 µM | COC(=O)c1ccc(/C(O)=C(\C#N)c2nc3ccccc3s2)cc1
> 99 µM (inactive) | O=C1CCCC(O)=C1C=Nc1ccc(O)cc1

Continued, compound first:

SMILES | EC50
C/C(N)=C(/C#N)C(=O)CSc1ccc2c(c1)OCCO2 | 1.17 µM
Cc1ccc(C2/C(=C(\O)c3cnn(-c4ccccc4)c3C)C(=O)C(=O)N2CCN(C)C)o1 (stereo not drawn) | 4.13 µM
CC1(C)CC(=O)C(C=Nc2ccccc2)=C(O)C1 | > 99 µM (inactive)
COc1ccc(C(=O)/C=C/Nc2cccc(C)n2)cc1OC | 0.749 µM
CC1(C)CC(=O)C(C=Nc2ccc3[nH]ncc3c2)=C(O)C1 | 9.88 µM
